From patent US20170119020A1, “METHOD OF FEEDING AN ANIMAL” (CARGILL, INCORPORATED, priority 2014, published 2017)
Marks after values point to notes of the source that are not given here.

What was measured:
Ross 308 embryos = assay: Embryonic mortality, hatchability and chick quality at hatch (Example 5); assay type: in vivo, chicken; details: for Chick length / Chick weight average / Chick weight dissected chicks / Liver weight / Relative asymmetry / YFBM (yolk free body mass) / Yolk weight: at hatch; for Chick length / Chick weight average / Chick weight dissected chicks / Liver weight / Relative asymmetry / YFBM (yolk free body mass) / Yolk weight / Egg weight EQ / Relative liver weight / Relative yolk weight / Relative chick weight: breeder diet; for Relative liver weight / Relative yolk weight: percentage of chick weight; for Relative chick weight: percentage of egg weight at EO; for Early Embryonic Mortality: E0-E7; for Mid Embryonic Mortality: E8-E18; for Late Embryonic Mortality: E19-E21
Method: For a period of six days, eggs were collected from the broiler breeder flock of Example 4 above. The eggs were stored based on breeder pen and storage day for an additional three days before the brooding period started. All eggs were incubated until hatch. All eggs were distributed over 24 trays and 6 blocks, with each block representing a storage day.
A total of 2160 eggs derived from the 37-38 week broiler breeders (Ross 308) of Example 4 were collected and stored in the egg storage unit of the broiler breeder facility. At the start of the incubation period, the eggs were weighed and allocated into blocks, each block representing a storage day. Each block consisted of 24 experimental units, with each experimental unit indicating a group of 15 eggs. Only intact eggs were included and eggs that were cracked, dirty or that had deformed shells were excluded from the trial.
The eggs were placed in a Nature Form NMC 2340 Incubator with automatic control of temperature and relative humidity. From E0 till E18 the eggs were placed in setter trolleys, which consist of two shelves with a capacity for 13 trays each. Each tray has three flats of 30 eggs each. During this period, the incubator start temperature was set at 37.5° C. and relative humidity at 54%.
After the setter period (E0-E18), eggs were transferred to baskets in the hatchers based on the blocking and tray structure in the setter. The eggs were placed into subdivisions of a hatching crate (per experimental unit of 15 eggs), and following tray order per block (starting with 1AO ending with 24CI). Each hatcher trolley has twelve baskets with a capacity for 180 eggs each. Eggs of tray 1-12 were placed in incubator machine 1, eggs of tray 13-24 were placed in incubator machine 2. During this period, the incubator temperature was set at 36.7° C. and relative humidity at 70%.
Group egg weights were recorded at E0. At E7 and E18, all eggs were candled and empty eggs or eggs containing dead embryos were removed (early dead E0-E7, mid dead E8-E18). At E18 eggs were transferred to the hatching baskets after candling. At hatch (E21) the number of dead chickens, late dead embryos (E19-E21) and pipped eggs were recorded. The number of hatched chickens was recorded per replicate, as well as average chick weight. […] Sex was determined by feather sexing, female chickens were euthanized by CO2 and disposed according to local regulations. Per experimental unit, five male chickens were selected for the grow-out period and allocated to broiler grower pens. Only chickens with an average body weight, completely dry, showing active movement and with a good navel score were selected. After this selection one male chicken per experimental unit was selected for dissection. Sample chickens were individually weighed and killed by cervical dislocation to measure remaining yolk-sac weights, yolk-free body mass (“YFBM”), liver weight, chick length, and shank length of both shanks. The livers were immediately placed on dry ice and after dissection stored at −20° C. for further analysis (“SOD and GSSG”). Relative asymmetry was calculated according to the following formula:
RA=(|L−R|/[(L+R)/2])×100.

[1] = test system: sows (PIC) and their piglets; assay: Litter performance (Example 10); assay type: in vivo, pig; details: for Mortality: piglets until weaning
Method: Testing was performed on sows (primiparous and multiparous) of the same type of crossing (PIC). The trial comprised 52 sows in a system of continuous farrowing. Each group was consist of 13 animals. The trial ran from day 1 of pregnancy to remating in the next cycle.
Each group was fed with complete diets for pregnant sows (0-90 d) and for lactation sows (90 d of gestation-weaning) with different inclusion of vitamin E and tested product (see TABLE 43A) and lactation diets (see TABLE 43B)
The performance following criteria were monitored during the trial: (i) Sows response criteria (actual parity, farrowing rate, culled sows—number and reasons, wean-to-mating interval, farrowing rate in the next cycle); (ii) litter response criteria (number of piglets, total, alive, stillborn, mummies; weight of piglets and litters; survival). The following biochemical (blood) criteria were monitored during the trial for the sows (mating, farrowing and weaning), piglets 21st day: (i) glutathione peroxidase (GPx) activity; (ii) superoxide dismutase (SOD) activity; (iii) total antioxidant status (TAS); (iv) vitamin E content; (v) vitamin A content.

[2] = 1st day, Group 2: vitamin E 50/75 mg/kg sow diet
[3] = 1st day, Group 3: vitamin E 100/150 mg/kg sow diet
[4] = Weaning, Group 2: vitamin E 50/75 mg/kg sow diet
[5] = Weaning, Group 3: vitamin E 100/150 mg/kg sow diet

Q: Which results are given for `Cc1c(C)c2c(c(C)c1O)CCC(C)(CCCC(C)CCCC(C)CCCC(C)C)O2` (racemic) [Vitamin E, DL-α-tocopherol]?
A: Chick length (Ross 308 embryos; vitamin E equivalence 80 ppm): 18.3 cm; Chick weight average (Ross 308 embryos; vitamin E equivalence 80 ppm): 43.8 g; Chick weight dissected chicks (Ross 308 embryos; vitamin E equivalence 80 ppm): 42.8 g; Liver weight (Ross 308 embryos; vitamin E equivalence 80 ppm): 1.2 g; Relative asymmetry (Ross 308 embryos; vitamin E equivalence 80 ppm): 2.4%; YFBM (yolk free body mass) (Ross 308 embryos; vitamin E equivalence 80 ppm): 39.6 g; Yolk weight (Ross 308 embryos; vitamin E equivalence 80 ppm): 4.2 g; Chick length (Ross 308 embryos; vitamin E equivalence 160 ppm): 18.4 cm; Chick weight average (Ross 308 embryos; vitamin E equivalence 160 ppm): 43.7 g; Chick weight dissected chicks (Ross 308 embryos; vitamin E equivalence 160 ppm): 43.6 g; Liver weight (Ross 308 embryos; vitamin E equivalence 160 ppm): 1.2 g; Relative asymmetry (Ross 308 embryos; vitamin E equivalence 160 ppm): 2.3%; YFBM (yolk free body mass) (Ross 308 embryos; vitamin E equivalence 160 ppm): 40.6 g; Yolk weight (Ross 308 embryos; vitamin E equivalence 160 ppm): 4.2 g; Egg weight EQ (Ross 308 embryos; vitamin E equivalence 80 ppm): 62.9 g; Egg weight EQ (Ross 308 embryos; vitamin E equivalence 160 ppm): 63.0 g; Relative liver weight (Ross 308 embryos; vitamin E equivalence 80 ppm): 2.8%; Relative yolk weight (Ross 308 embryos; vitamin E equivalence 80 ppm): 9.7%; Relative liver weight (Ross 308 embryos; vitamin E equivalence 160 ppm): 2.7%; Relative yolk weight (Ross 308 embryos; vitamin E equivalence 160 ppm): 9.4%; Relative chick weight (Ross 308 embryos; vitamin E equivalence 80 ppm): 69.7%; Relative chick weight (Ross 308 embryos; vitamin E equivalence 160 ppm): 69.4%; Empty eggs (Ross 308 embryos; vitamin E equivalence 80 ppm): 1.2%; Hatchability of fertile (Ross 308 embryos; vitamin E equivalence 80 ppm): 91.8%; Hatchability of total (Ross 308 embryos; vitamin E equivalence 80 ppm): 90.6%; Total Embryonic Mortality (Ross 308 embryos; vitamin E equivalence 80 ppm): 7.7%; Early Embryonic Mortality (Ross 308 embryos; vitamin E equivalence 80 ppm): 4.0%; Mid Embryonic Mortality (Ross 308 embryos; vitamin E equivalence 80 ppm): 1.6%; Late Embryonic Mortality (Ross 308 embryos; vitamin E equivalence 80 ppm): 2.7%; Empty eggs (Ross 308 embryos; vitamin E equivalence 160 ppm): 0.0%; Hatchability of fertile (Ross 308 embryos; vitamin E equivalence 160 ppm): 90.2%; Hatchability of total (Ross 308 embryos; vitamin E equivalence 160 ppm): 90.2%; Total Embryonic Mortality (Ross 308 embryos; vitamin E equivalence 160 ppm): 8.6%; Early Embryonic Mortality (Ross 308 embryos; vitamin E equivalence 160 ppm): 6.6%; Mid Embryonic Mortality (Ross 308 embryos; vitamin E equivalence 160 ppm): 0.5%; Late Embryonic Mortality (Ross 308 embryos; vitamin E equivalence 160 ppm): 1.8%; Litter weight [1, 2]: 18.50^a kg; Number of piglets per litter, Born alive [1, 2]: 12.82; Number of piglets per litter, Mummies [1, 2]: 0.18; Number of piglets per litter, Stillborn [1, 2]: 1.36; Number of piglets per litter, Weak [1, 2]: 0.36; Piglet weight [1, 2]: 1.44 kg; Litter weight [1, 3]: 19.07^a kg; Number of piglets per litter, Born alive [1, 3]: 13.18; Number of piglets per litter, Mummies [1, 3]: 0.20; Number of piglets per litter, Stillborn [1, 3]: 1.09; Number of piglets per litter, Weak [1, 3]: 0.40; Piglet weight [1, 3]: 1.45 kg; Litter weight [1, 4]: 83.96^b kg; Piglet weight [1, 4]: 7.16 kg; Weaning Number of piglets per litter [1, 4]: 11.73; Litter weight [1, 5]: 84.33^b kg; Piglet weight [1, 5]: 7.31 kg; Weaning Number of piglets per litter [1, 5]: 11.82; Mortality ([1]; Group 2: vitamin E 50/75 mg/kg sow diet): 8.37%; Mortality ([1]; Group 3: vitamin E 100/150 mg/kg sow diet): 10.64%
